Measurements as given in patent publication US12319699B2, “L-proline sulfonamide derivatives comprising pyrazolo[4,3-e]tetrazolo[4,5-b][1,2,4]triazine system, method of manufacturing thereof, uses thereof and pharmaceutical composition comprising the same” (UNIWERSYTET MEDYCZNY W BIALYMSTOKU, priority 2018, dated 2025).

How the values were obtained:
[1] = test system: AGS human gastric cancer cells; assay: DNA biosynthesis, [3H]-thymidine incorporation; assay type: cell-based; conditions: 24-hour incubation
Experimental: AGS human gastric cancer cells (ATCC CRL-1739, Manassas, VA, USA) were cultured in DMEM (Dulbecco's Modified Eagle's Medium) supplemented with 10% fetal bovine serum (FBS), 2 mM glutamine, 50 U/ml penicillin, 50 μg/ml streptomycin at 37° C., in atmosphere containing 5% CO2. Subsequently, the cells were counted in a hemocytometer and transferred in the amount of […] cells per well in 1 ml of culture medium from Costar flasks (Sigma, USA) to Nunc 6-well plates (Wiesbaden, Germany). The cells were transferred using calcium-free phosphate buffer with the addition of 0.05% trypsin and 0.02% EDTA. […] Within the subsequent 24 hours the cells covered at least 80% of the surface of each plate well. The cells prepared in this manner were incubated with the examined compounds for 24 hours and then used for further experiments.
(§1) The effect of the examined compounds according to the invention on the process of DNA biosynthesis was assessed by measuring incorporation of [^3H]-thymidine into DNA of the examined cells. […] After 5 minutes, the cell lysate obtained was transferred to scintillation vials containing 2 ml of scintillation fluid and radioactivity was measured. […] The values from the examined samples were expressed as percentage of the control value. The significance level p was determined by the nonparametric Mann-Whitney U test by means of SigmaStat software. […]

[2] = test system: HT-29 human colorectal cancer cells; assay: DNA biosynthesis, [3H]-thymidine incorporation; assay type: cell-based; conditions: HT-29, 24-hour incubation
Experimental: HT-29 human colorectal cancer cells (ATCC HTB-38, Manassas, VA, USA) were cultured in McCoy's 5A medium supplemented with 10% fetal bovine serum (FBS), 2 mM glutamine, 50 U/ml penicillin, 50 μg/ml of streptomycin at 37° C., in atmosphere containing 5% CO2. Subsequently, the cells were counted in a hemocytometer and were transferred in the amount of 1×10^6 cells per well in 1 ml of culture medium from Costar flasks (Sigma, USA) to Nunc 6-well plates (Wiesbaden, Germany). The cells were transferred using calcium-free phosphate buffer with the addition of 0.05% trypsin and 0.02% EDTA. […] Within the subsequent 24 hours the cells covered at least 80% of the surface of each plate well. The cells prepared in this manner were incubated with the examined compounds for 24 hours and then used for further experiments.
as §1

[3] = test system: DLD-1 colorectal cancer cells; assay: Decrease in mitochondrial membrane potential, JC-1 MitoScreen flow cytometry; assay type: cell-based, human; conditions: 24 hours
Experimental: DLD-1 human colorectal cancer cells (ATCC CCL-221, Manassas, VA, USA) were grown in DMEM (Dulbecco's Modified Eagle's Medium) supplemented with 10% fetal bovine serum (FBS), 2 mM glutamine, 50 U/ml penicillin, 50 μg/ml streptomycin at 37° C., in atmosphere containing 5% of CO2. Then the cells were counted in a hemocytometer and transferred in the amount of 1×10^6 cells per well in 1 ml of culture medium from Costar flasks (Sigma, USA) to Nunc 6-well plates (Wiesbaden, Germany). The cells were transferred using calcium-free phosphate buffer with the addition of 0.05% trypsin and 0.02% EDTA. […] Within the subsequent 24 hours the cells covered at least 80% of the surface of each plate well. The cells prepared in this manner were incubated with the examined compounds for 24 hours and then used for further experiments.
For the assessment of changes in mitochondrial potential JC-1 MitoScreen kit (BD Biosciences. USA) was used. DLD-1 and HT-29 cancer cells covering about 80% of the plate surface were incubated with the examined compounds according to the invention at specific concentrations in an incubator at 37° C. in 5% CO2 atmosphere for 24 hours. Both examined compounds according to the invention were used at a concentration of 1.5 μM and 3.0 μM. After the incubation period, the medium was removed, the buffer included in the kit was added and the cells after washing two times were suspended in a mixture of JC-1 dye (5,5′,6,6′-tetrachloro-1,1′,3,3′-tetraethylbenzimidazol carbocyanine iodide) with a buffer at a concentration of 10 μg/ml. Subsequently, the samples were incubated in darkness for 15 minutes, washed with PBS solution and subjected to immediate analysis with the use of BD FacsCanto II flow cytometer; the results were assessed with the use of BD FacsDiva software. In live intact cells JC-1 dye accumulates in mitochondria and forms orange fluorescing aggregates. A decrease in mitochondrial potential ΔΨm is characterized by disintegration of these aggregates and green fluorescence.

| IC50 [1] | IC50 [2] | SMILES | decrease of ΔΨm, % of the cell population ([3]; DLD-1, 1.5 μM) | decrease of ΔΨm, % of the cell population ([3]; DLD-1, 3.0 μM) |
| --- | --- | --- | --- | --- |
| 1.05 ± 0.01 µM | 2.3 ± 0.02 µM | COC(=O)C1CC(O)CN1S(=O)(=O)c1ccc(-n2nc(C)c3nc4nnnn4nc32)cc1 (centres unmarked) [Compound of Formula 3, Methyl 4-hydroxy-1-[4-(7-methyl-5H-pyrazolo[4,3-e]tetrazolo[4,5-b][1,2,4]triazyn-5-yl)phenylsulfonyl]pyrrolidine-2-carboxylate] | 49.5% | 71.3% |
| 0.55 ± 0.01 µM | 3.62 ± 0.02 µM | COC(=O)C1CCCN1S(=O)(=O)c1ccc(-n2nc(C)c3nc4nnnn4nc32)cc1 (centres unmarked) [Compound of Formula 2, Methyl 1-[4-(7-methyl-5H-pyrazol[4,3-e]tetrazolo[4,5-b][1,2,4]triazyn-5-yl)phenylsulfonyl]pyrrolidine-2-carboxylate] | 48.9% | 63.8% |
